Several values for one entry are separate records, joined by “and”; a condition that tells them apart may be missing. Identical values can stand only once.
test system: S. Typhi PhoP-promoter GFP reporter, fluorescence, 4 h; test: PhoP regulon inhibitor project modified counter assay, GFP fluorescence readout, dose response (AID 1985)

SMILES	IC50
NC1=NC[C@H](CC2CCCCC2)N1CCc1cc(C(F)(F)F)cc(C(F)(F)F)c1	37.6 µM
C[C@H]1COc2c(N3CCN(C)CC3)c(F)cc3c(=O)c(C(=O)O)cn1c23	< 0.23 µM
Cc1ccc(-c2c[n+](Cc3ccc(Cl)cc3)c3n2CCC3)cc1	90.3 µM
O=c1c(O)cccc2cc(O)c(O)c(O)c12	17.5 µM
COc1ccc(NC(=O)c2cc(Br)c(Br)s2)cn1	23.3 µM
CCN1CCN(CCNC(=O)c2ccc3c(c2)N(Cc2ccc(F)cc2)C(=O)/C(=C/c2ccccc2)S3)CC1	125 µM
CCC(C)N1CCC2(CC1)N=c1c(c3c4c5c(C)c(O)c3c(O)c1=NC(=O)C(C)=CC=C[C@H](C)[C@H](O)[C@@H](C)[C@@H](O)[C@@H](C)[C@H](OC(C)=O)[C@H](C)[C@@H](OC)C=CO[C@@](C)(O5)C4=O)N2 (some centres not stated)	9.09 µM
COc1ccccc1N1CCN(Cc2ccc(O)c3ncccc23)CC1	72 µM
CC(/C=N/Nc1nc2ccccc2[nH]1)=C\c1ccccc1	71.8 µM
Cc1cc(N=Nc2ccc(C)c(N=Nc3cc(C)c(N)cc3N)c2)c(N)cc1N	108 µM
CCN1/C(=C/C=C/C=C/c2sc3ccccc3[n+]2CC)Sc2ccccc21	30.9 µM
O=C1c2ccccc2NC(c2ccc(-c3ccc(Br)cc3)o2)N1O (configuration not stated)	81.1 µM
N/C(=N\OS(=O)(=O)c1ccc2ccccc2c1)c1cccnc1	14.2 µM
COc1cc2c(cc1OC)[C@H](Cc1ccc(O)cc1)NCC2	87 µM
Cc1occc1C(=O)N/N=C/c1cccs1	45.7 µM
OCCCCNCc1ccc(OCc2ccc(Cl)cc2Cl)cc1	133 µM
O=C(CCN1CCOCC1)N/N=C/c1cc(Br)cc(Br)c1O	30.7 µM
CCCCCCCNC(=O)C1(CC2CC(c3ccc(Cl)cc3)=NO2)CCNCC1 (configuration not stated)	39 µM
O=[N+]([O-])c1cccc2c(N3CCCC3)ccnc12	17.6 µM
Cc1ccc(-c2c[n+](CC(=O)Nc3nc(-c4ccccc4)cs3)c3n2CCC3)cc1	90.4 µM
Nc1nonc1C(=O)N/N=C/c1cc(Br)ccc1O	12.7 µM

SMILES	IC50
Cc1ccccc1C(=O)N/N=C/c1ccc([N+](=O)[O-])s1	29 µM
COc1cc(C(=O)O/N=C2\C=CC(=O)C(C)=C2)cc(OC)c1OC	131 µM
CCCCCNC(=O)c1cn(CC)c2cc(N3CCN(C)CC3)c(F)cc2c1=O	80.1 µM
Oc1c(Br)cc(Br)cc1C=NCc1ccccc1	49.7 µM
O=C(N/N=C/c1ccc([N+](=O)[O-])s1)c1ccccc1Br	27.7 µM
CCCOc1ccc(C(=O)NNC(=S)NC(=O)CC)cc1	78.8 µM
O=C(OCC(=O)N1CCOCC1)c1ccc[nH]c1=O	10.6 µM
CCC(/C=C1\Sc2ccc(OC)cc2N1CCO)=C\c1sc2ccc(OC)cc2[n+]1CCO	95 µM
COc1ccc(Nc2cc(C)c3c(O)cccc3n2)cc1	34.4 µM
CN1CCN(CCCN2c3ccccc3Sc3ccc(C(F)(F)F)cc32)CC1	124 µM
Oc1c(I)cc(Cl)c2cccnc12	8.07 µM
Cc1ccc(C(=O)NNC(=S)NC(=O)COc2ccccc2)cc1	47.5 µM
c1ccc2cc(CSCc3nc4ccccc4[nH]3)ccc2c1	103 µM
OCCN1CCN(C2Cc3cc(Cl)ccc3Sc3ccc(Cl)cc32)CC1 (configuration not stated) (tested in a mixture with another compound)	74.8 µM
CCC(O)(CC)C(=O)N/N=C/c1cc(Br)cc(Br)c1O	60.9 µM
NC(N)=N/N=C/c1ccc(OCc2ccccc2Cl)cc1	33.4 µM
CC(C)(c1ccccc1)c1ccc(OCCCN2CCNCC2)cc1	114 µM
Cc1cc(/C=C\c2ccc3cc(N(C)C)ccc3[n+]2C)c(C)n1-c1ccccc1	32 µM
CC(C)(C)c1ccc(OCCCCCCN2CCNCC2)cc1	127 µM
O=C(NC(=S)NNC(=O)c1ccco1)c1ccc(Br)cc1	69 µM
CCN(CCNCC(O)COc1ccccc1C(C)C)c1cccc(C)c1 (configuration not stated)	72.6 µM

SMILES	IC50
COc1cccc(/C=N/NC(=O)CSCC(=O)Nc2ccccc2)c1O	92.5 µM
O=C(N/N=C/c1cc([N+](=O)[O-])ccc1O)c1cccc2cc[nH]c12	91.6 µM
COc1ccc(OCC(O)CNc2ccc(Br)cc2)cc1 (configuration not stated)	3.55 µM
O=C1NCCN1c1ncc([N+](=O)[O-])s1	15.9 µM
CCCCn1c(NS(=O)(=O)c2ccccc2)c(C(=O)OCC)c2nc3ccccc3nc21	110 µM
Cc1c(N=Cc2cc(Br)cc(Br)c2O)cccc1C(=O)O	77.5 µM
N#Cc1c(-c2ccccc2)ccn(Cc2cccc(Cl)c2)c1=O	21.2 µM
COc1ccc2nc(NC(=O)C3CC(=O)N(c4ccccc4)C3)sc2c1 (configuration not stated)	107 µM
Cc1nc2c(=O)n(C)c(=O)nc-2n(C)n1	0.781 µM
N/C(=N\OS(=O)(=O)c1ccc(Cl)cc1)c1cccnc1	91.3 µM
O=S(=O)(Nc1ncccn1)c1ccc(NC(=S)Nc2cccc(Cl)c2)cc1	95.3 µM
CCN1/C(=C/C(C)=C/c2sc3ccccc3[n+]2CC)Sc2ccccc21	12.6 µM
Cc1ccc(NC(=S)Nc2ccc(S(=O)(=O)Nc3ncccn3)cc2)cc1Cl	101 µM
Nc1ncncc1-c1ccc(Cl)cc1	131 µM
Fc1ccc(Nc2ccnc(Nc3ccc(F)cc3)n2)cc1	39.3 µM
CN1CCN(CCCN2c3ccccc3Sc3ccc(Cl)cc32)CC1	132 µM and 79.2 µM
CN(C)c1ccc2nc3ccc(=[N+](C)C)cc-3sc2c1	22.7 µM
COC(=O)C1C(O)C(C)C(O)C(C)(O)/C=C\C=C(/C)C(=O)Nc2c(C)c(OC(C)=O)c3c(c2O)C(=O)C(C)=C2OCOC(=C23)/C(C)=C/C(C)(O)C(O)C(C)C1O (configuration not stated)	33.1 µM
NC1=C(Br)C(=O)c2ccccc2C1=O	20.1 µM
c1ccc(-c2nc3ccccc3[nH]2)cc1	75 µM
CCCCCN=C(N)N/N=C/c1c[nH]c2ccc(OC)cc12	35.6 µM

SMILES	IC50
O=C(Nc1nnc(-c2ccco2)o1)c1cccc(Cl)c1	40 µM
CC(C)Cc1c(O)nc(SCC(=O)Nc2ccc3c(c2)CCC3)[nH]c1=O	95.4 µM
CN1CCN(C2Cc3cc(Cl)ccc3Sc3cc(F)ccc32)CC1 (configuration not stated)	37.5 µM
O=C(N/N=C/c1c[nH]c2ccccc12)c1ccc(Cl)cc1	123 µM
Cc1ccc2nc(/C(C#N)=C\c3ccc([N+](=O)[O-])o3)[nH]c2c1	23.3 µM
COc1ccc(C(=O)CCN2CCc3cc(OC)c(OC)cc3C2)cc1	122 µM
CCn1cc(C(=O)NCc2ccc3c(c2)OCO3)c(=O)c2cc(F)c(N3CCN(C(=O)c4ccco4)CC3)cc21	107 µM
O=C(Nc1ccc2nc(-c3ccc(Br)o3)[nH]c2c1)c1cccs1	78.7 µM
Cc1cc(NC(=O)c2ccccc2)sc1C	84.3 µM
CCOC(=O)c1c(-c2ccccc2)oc2ccc(OCC(O)CNCCN(C)C)cc12 (configuration not stated)	80.2 µM
CO[C@H]1/C=C/O[C@@]2(C)Oc3c(C)c(O)c4c(O)c(c(C=NN5CCN(C)CC5)c(O)c4c3C2=O)NC(=O)/C(C)=C\C=C\[C@H](C)[C@H](O)[C@@H](C)[C@@H](O)[C@@H](C)[C@H](OC(C)=O)[C@@H]1C	32.6 µM
CCSc1ccc2c(c1)N(CCCN1CCN(C)CC1)c1ccccc1S2	131 µM
CCc1ccc(NC(=O)C[n+]2cc(-c3ccc(C)cc3)n3c2CCC3)cc1	69.8 µM
O=C(N/N=C/c1ccc([N+](=O)[O-])o1)C1CCCC1	37.7 µM
Clc1ccc(OCCCNCc2ccccc2)c(Br)c1	43.8 µM
CCCCOc1ccc(CSC(=N)N)cc1Cl	31.9 µM
CN1CCC(OC(=O)c2ccc(Br)cc2)CC1	58.3 µM
Cn1c(N/N=C/c2c[nH]c3ccccc23)nc2ccccc21	113 µM
CC(=O)NC(=S)NNC(=O)c1ccc(Br)cc1	33.8 µM

Source: PubChem BioAssay AID1985 (Southern Research Specialized Biocontainment Screening …, 2009)
